The values that follow come from patent US20090221624A1, “4-AMINOQUINOLINE COMPOUNDS FOR TREATING VIRUS-RELATED CONDITIONS” (priority 2005, published 2009).

As usually defined, the EC50 is the concentration at which the effect is half-maximal.

Molecules are shown by their SMILES.

In one data set the test system is WNV (WN-hRuPac cells). Briefly: WNV antiviral activity, WN-hRuPac cells, Renilla luciferase. The format is cell-based, West Nile virus. The conditions noted are these: for EC50 / inhibition at 25 µM: West Nile virus; for EC50: Secondary Data, WNV, read-out: WNV EC50; for inhibition at 25 µM: primary screening, 25 μM final concentration, 24 hours, percent inhibition of viral replication, read-out: WNV Inh; for WNV TI: therapeutic index CC50/EC50, WNV.

For a further data set, the system named is SINV (SR19-F-luc cells). Briefly: SINV antiviral activity, SR19-F-luc cells, Firefly luciferase. The format is cell-based. The conditions noted are these: Sindbis virus; for inhibition at 25 µM: primary screening, 25 μM final concentration, 24 hours, percent inhibition of viral replication, read-out: SINV Inh; for EC50: secondary screening, SR19-F-luc cells.

A further data set has as its system DNG (D2-hRuPac cells). Briefly: DNG antiviral activity, D2-hRuPac cells, Renilla luciferase. The class given is cell-based, Dengue fever virus. As to conditions: Dengue virus, secondary screening.
The test system of another data set is EBOV minigenome. Briefly: microbe, parasite or virus in culture. The class given is cell-based, Ebola virus. The conditions noted are these: Zaire ebolavirus; for inhibition at 25 µM: 24 h, read-out: EBOV Inh; for EC50: read-out: EBOV EC50.
The next data set relates to RSV minigenome. Briefly: RSV minigenome-dependent β-galactosidase expression assay (RSV β-Gal). The class given is cell-based, respiratory syncytial virus. As to conditions: for EC50 / inhibition at 25 µM: human respiratory syncytial virus; for EC50: Secondary Data, RSV, read-out: RSV EC50; for inhibition at 25 µM: primary screening, 25 μM final concentration, 24 hours, percent inhibition of viral replication, read-out: RSV Inh; for RSV TI: therapeutic index CC50/EC50, RSV.

The test system of data set [1] is HCV replicon (Clone A cells, Huh7, subgenomic hepatits C virus RNA). Briefly: HCV Neo screening assay (HCV replicon, NPTII ELISA). As to conditions: for EC50 / inhibition at 25 µM: Hepatitis C virus, Huh-7; for EC50: Secondary Data, HCV; for inhibition at 25 µM: primary screening, 25 μM final concentration, 24 hours, percent inhibition of viral replication, read-out: HCV Inh; for HCV TI: therapeutic index CC50/EC50, HCV. The format is cell-based, hepatitis C virus. Background: In antiviral work, replicon cells carry a viral genome segment that copies itself.

The next data set has as its system YFV (YF-hRuPac cells). Briefly: microbe, parasite or virus in culture. The class given is cell-based, yellow fever virus. As to conditions: for inhibition at 25 µM / EC50: Yellow fever virus; for inhibition at 25 µM: 24 h, read-out: YFV Inh; for EC50: read-out: YFV EC50.

In the case of `COc1ccc2nc(C)cc(Nc3ccc(OCc4ccccc4Cl)cc3)c2c1` [Compound 43], the CC50 came to 26.1 µM in “in vitro” (DNG CC50); 26.1 µM in “in vitro” (EBOV CC50); 2.09 µM in the data set “in vitro” (HCV CC50); 26.1 µM in “in vitro” (RSV CC50); 26.1 µM in “in vitro” (SINV CC50); 26.1 µM in the data set “in vitro” (WNV CC50). Besides, in the data set “in vitro” (YFV CC50), the CC50 is 26.1 µM. The EC50 was 5.45 µM with WNV (WN-hRuPac cells); 4.08 µM in the data set on SINV (SR19-F-luc cells); 1.65 µM with DNG (D2-hRuPac cells); 75 µM with EBOV minigenome; 2.24 µM in the data set on RSV minigenome; 1.6 µM in data set [1]. For the same molecule, in the data set with YFV (YF-hRuPac cells), the concentration for a half-maximal effect (EC50) turned out to be 1.41 µM. For the same molecule, the inhibition at 25 µM amounted to 99.9% in the data set on WNV (WN-hRuPac cells); 99.7% with SINV (SR19-F-luc cells); 98.7% in the data set on EBOV minigenome; 100% in the data set on RSV minigenome; 95.4% in data set [1]; 100% in the data set on YFV (YF-hRuPac cells). In addition, the “WNV TI” value with WNV (WN-hRuPac cells) is 4.78. Also, in the data set on RSV minigenome, the “RSV TI” value stood at 11.63. In addition, in data set [1], the “HCV TI” value came to 1.31. Moreover, the “YFV TI” value with YFV (YF-hRuPac cells) was 18.48.
For `Cc1cc(C)c2nc(C)cc(Nc3ccc(OCc4ccccc4)cc3)c2c1` [Compound 44], the CC50 in “in vitro” (DNG CC50) amounted to 27.4 µM; in “in vitro” (EBOV CC50), 27.4 µM; in “in vitro” (HCV CC50), 5.05 µM; in the data set “in vitro” (RSV CC50), 27.4 µM; in the data set “in vitro” (SINV CC50), 27.4 µM; in “in vitro” (WNV CC50), 27.4 µM. Also, the CC50 in “in vitro” (YFV CC50) is 27.4 µM. Further, the 50% effective concentration (EC50) in the data set on WNV (WN-hRuPac cells) is 4.29 µM; in the data set on SINV (SR19-F-luc cells), 3.57 µM; with DNG (D2-hRuPac cells), 3.39 µM; with EBOV minigenome, 75 µM; with RSV minigenome, 3.88 µM; in data set [1], 2.93 µM. Moreover, the concentration for a half-maximal effect (EC50) in the data set on YFV (YF-hRuPac cells) amounted to 2.26 µM. Moreover, the inhibition at 25 µM with WNV (WN-hRuPac cells) was found to be 99.9%; with SINV (SR19-F-luc cells), 95.8%; in the data set on EBOV minigenome, 99.6%; with RSV minigenome, 98.9%; in data set [1] it was 94.7%; in the data set with YFV (YF-hRuPac cells) it was 100%. For the same molecule, the “WNV TI” value in the data set on WNV (WN-hRuPac cells) was 6.39. For the same molecule, in the data set on RSV minigenome, the “RSV TI” value turned out to be 7.06. Further, the “HCV TI” value in data set [1] was found to be 1.72. In the data set with YFV (YF-hRuPac cells), the “YFV TI” value turned out to be 12.12.
With `CCOc1ccc2nc(C)cc(Nc3ccc(C)c(Cl)c3)c2c1` [Compound 45], the CC50 in the data set “in vitro” (DNG CC50) came to 25.3 µM; in the data set “in vitro” (EBOV CC50) it was 25.3 µM; in the data set “in vitro” (HCV CC50), 4.66 µM; in the data set “in vitro” (RSV CC50) it was 25.3 µM; in “in vitro” (SINV CC50) it was 25.3 µM; in the data set “in vitro” (WNV CC50) it was 25.3 µM. Besides, the CC50 in the data set “in vitro” (YFV CC50) came to 25.3 µM. In addition, the 50% effective concentration (EC50) in the data set on WNV (WN-hRuPac cells) was 3.17 µM; in the data set with SINV (SR19-F-luc cells), 3.23 µM; in the data set with DNG (D2-hRuPac cells), 5.04 µM; in the data set with EBOV minigenome, 75 µM; with RSV minigenome, 2.95 µM; in data set [1], 4.4 µM. For the same molecule, the EC50 in the data set with YFV (YF-hRuPac cells) worked out at 2.12 µM. Besides, the inhibition at 25 µM with WNV (WN-hRuPac cells) amounted to 99%; in the data set with SINV (SR19-F-luc cells), 95.7%; in the data set on EBOV minigenome, 96.2%; in the data set with RSV minigenome, 99.9%; in data set [1], 119%; with YFV (YF-hRuPac cells), 100%. The “WNV TI” value in the data set on WNV (WN-hRuPac cells) was determined as 7.99. In addition, in the data set with RSV minigenome, the “RSV TI” value is listed as 8.59. In addition, the “HCV TI” value in data set [1] came to 1.06. Moreover, in the data set with YFV (YF-hRuPac cells), the “YFV TI” value amounted to 11.95.
As to `CCOC(=O)c1cnc2c(C)cccc2c1NCc1ccco1` [Compound 46], the CC50 in the data set “in vitro” (DNG CC50), in the data set “in vitro” (EBOV CC50), in the data set “in vitro” (RSV CC50), in the data set “in vitro” (SINV CC50), in “in vitro” (WNV CC50) and in the data set “in vitro” (YFV CC50) was 49.1 µM in each case. The concentration giving a half-maximal response (EC50) with WNV (WN-hRuPac cells) amounted to 2.96 µM; in the data set with SINV (SR19-F-luc cells), 49.7 µM; with DNG (D2-hRuPac cells) it was 10.2 µM; in the data set on EBOV minigenome, 7.92 µM; with RSV minigenome, 1.31 µM; with YFV (YF-hRuPac cells), 3.54 µM. Besides, the inhibition at 25 µM with WNV (WN-hRuPac cells) is 103%; with SINV (SR19-F-luc cells), -16.9%; with EBOV minigenome it was 90%; with RSV minigenome, 94.7%; in data set [1], 15%; in the data set on YFV (YF-hRuPac cells), 97.7%. Besides, the “WNV TI” value in the data set with WNV (WN-hRuPac cells) is on record as 16.59. Also, the “RSV TI” value with RSV minigenome amounted to 37.48. Also, the “YFV TI” value in the data set with YFV (YF-hRuPac cells) came to 13.87.
